Literature values as cited in patent publication US20240075184A1, “BIODEGRADABLE IMPLANTS WITH ANTICORROSIVE COATINGS” (University of Georgia Research Foundation, Inc., priority 2021, published 2024).
Where two headings read alike, the source gives them in different places.

Experiments:
[1] = 0.4 M in corrosion solution, high-purity Mg
[2] = 0.4 M in corrosion solution, Mg alloy AZ31

Question: With `O=C1C=C(O)C(=O)c2ccccc21` [Lawsone, 2-hydroxy-1,4-napthoquinone] as the compound, how does the inhibition efficiency [1] read?
Answer: 97%

Question: And the inhibition efficiency [2]?
Answer: 90%
